Patent EP0944596B1, “1-ACRYLOYLINDOLINE DERIVATIVES AND THEIR USE AS PRODRUGS OF ANTICANCER AGENTS” (Auckland Uniservices Limited, priority 1996, dated 1998)

How the values were obtained:
[1] = background statement, literature; cited from earlier work
UV4 cells [2] = assay: Activation by E. coli nitroreductase 2 (NR2): growth inhibition of UV4 cells with purified enzyme and NADH added; type: cell-based; conditions: for IC50: Cricetulus griseus, UV4 cells, purified E. coli nitroreductase enzyme (1 µg/mL) and NADH (1 mM) during the entire incubation, read-out: IC50 (nM) drug + NADH + NR2; for Ratio*: IC50 drug alone/IC50 drug + NADH + NR2, intra-experiment ratios, 1080 min
Experimental: (§1) To evaluate the activity of a compound UV4 cells were maintained in exponential phase growth (doubling times 14 and 15 h respectively) using Alpha MEM containing fetal calf serum (10% v/v) without antibiotics, and were subcultured twice weekly by trypsinization. Bulk cultures were prepared for experiments by seeding cells in spinner flasks at 10^4 cells/mL in the above medium with addition of penicillin (100 IU/mL) and streptomycin (100 µg/mL). Cultures were initiated in 96-well microtiter trays to give 200 (AA8) or 300 (UV4) cells in 0.05 mL per well. After growth in a CO2 incubator for 24 h, drugs were added in culture medium, using serial two-fold dilutions to provide duplicate cultures at five different concentrations for each of eight drugs (plus eight controls) per tray. After 18 h drugs were removed by washing cultures three times with fresh medium, and the trays were incubated for a further 78 h. Cell density was then determined by staining with metbylene blue as described [Finlay, G.J.; Baguley, B.C.; Wilson, W.R. Anal. Biochem., 1984, 139: 272-277]. The IC50 was calculated as the drug concentration providing 50% inhibition of growth relative to the controls.
(§2) To evaluate the activation of the compound by E. coli nitroreductase 2 (NR2) the experiment was repeated but in addition purified E. coli nitroreductase enzyme (1 µg/mL) and NADH (1 mM, as cofactor) was added during the entire time of the incubation. As a comparison the experiment was also repeated but with the addition only of NADH and not NR2.
(§3) Where multiple determinations were carried out the IC50 is given as an average ± SEM. Where one determination only was carried out a single IC50 value is given.

UV4 cells [3] = assay: Growth inhibition (cytotoxicity) of UV4 cells, 18 h drug exposure, methylene blue staining; type: cell-based; conditions: Cricetulus griseus
Experimental: as §1, §2, §3

[4] = 18 h exposure, then 78 h further incubation, average ± SEM where multiple determinations, read-out: IC50 (nM) drug alone
[5] = NADH (1 mM) added, no NR2, 18 h exposure, read-out: IC50 (nM) drug + NADH

SMILES	IC50 [1]	IC50 (UV4 cells [2])	Ratio* (UV4 cells [2])	IC50 (UV4 cells [3]; [4])	IC50 (UV4 cells [3]; [5])
COc1c(O)c2c(c3cc(C(=O)N4CCc5c4c(O)c(OC)c4[nH]c(C(=O)N6CC7CC78C6=CC(=O)c6[nH]cc(C)c68)cc54)[nH]c13)CCN2C(N)=O (stereo not drawn) [CC-1065]	low pM range				
CCCC(=O)Nc1cc(/C=C/C(=O)N2CC(CCl)c3ccc([N+](=O)[O-])cc32)n(C)c1 (stereo not drawn) [Compound 7, 1-[(E)-3-(4-butyramido-1-methyl-2-pyrrole)acryloyl]-3-(chloromethyl)-6-nitroindoline]		43 ± 4 nM	70±13	2940 ± 320 nM	1080 ± 340 nM
CCCC(=O)Nc1cc(/C=C/C(=O)N2CC(CCl)c3ccc(N)cc32)n(C)c1 (stereo not drawn) [Compound 8, 6-amino-1-[(E)-3-(4-butyramido-1-methyl-2-pyrrole)acryloyl]-3-(chloromethyl)indoline]		35 nM	1.1	38 nM	24 nM
Cn1cccc1C(=O)Nc1cccc(/C=C/C(=O)N2CC(CCl)c3ccc([N+](=O)[O-])cc32)c1 (stereo not drawn) [Compound 12, 1-[(E)-3-(1-methylpyrrole-2-carboxamido)cinnamoyl]-3-chloromethyl-6-nitroindoline]			ca. 30	~5000 nM	
CC(=O)Nc1cccc(/C=C/C(=O)N2CC(CCl)c3ccc([N+](=O)[O-])cc32)c1 (stereo not drawn) [Compound 13, 1-[(E)-3-(acetylamino)cinnamoyl]-3-chloromethyl-6-nitroindoline]		74 ± 23 nM	3.5	335 nM	339 nM
